Measured values reported in PMC9124866, “Structure-Activity Relationships of Dopamine Transporter Pharmacological Chaperones” (Frontiers in Cellular Neuroscience, 2022).

Target: T1, DAT (Homo sapiens, UniProt Q01959)
T1 construct: expressed in transfected cells
Test: Dopamine uptake inhibition dose response of hit compounds (Figure 6)
Assay type: cell-based
Conditions: doses 1 nM to 100 μM, normalized to vehicle
Procedure: Dopamine uptake inhibition was conducted using the Neurotransmitter Transporter Uptake Assay Kit (Molecular Devices, prod#R8173). Cells (1 × 10^5/well) were seeded into 96-well plates and incubated for 24 h. The cells were subjected to overnight drug treatment. The following day, wells were washed and incubated for 30 min with a mixture of 1X Hank’s Balanced Salt Solution (HBSS) and 0.1% Bovine Serum Albumin (BSA) Buffer. Dopamine uptake inhibitors were added during the incubation period. Following the incubation, the fluorescent dye was added, and the plate was immediately transferred to the bottom-read fluorescence microplate reader (Spectramax M3, Molecular Devices) for kinetic read-mode. The assay reads the amount of fluorescent activity which increases as fluorescent dye molecules are transported into the cells by the DAT. The read-out for this assay is the slope which equals the fluorescent measurements/time, ultimately denoting the uptake rate.
Data analysis was performed using GraphPad Prism (GraphPad Software, La Jolla, CA). Linear regression analysis was performed on βLAC time points to determine the slope, thus the rate of reaction, for comparison. Furthermore, the slope was also used to determine the degree of dopamine uptake in the dopamine uptake assays. […]

T1 sequence (Q01959 whole entry): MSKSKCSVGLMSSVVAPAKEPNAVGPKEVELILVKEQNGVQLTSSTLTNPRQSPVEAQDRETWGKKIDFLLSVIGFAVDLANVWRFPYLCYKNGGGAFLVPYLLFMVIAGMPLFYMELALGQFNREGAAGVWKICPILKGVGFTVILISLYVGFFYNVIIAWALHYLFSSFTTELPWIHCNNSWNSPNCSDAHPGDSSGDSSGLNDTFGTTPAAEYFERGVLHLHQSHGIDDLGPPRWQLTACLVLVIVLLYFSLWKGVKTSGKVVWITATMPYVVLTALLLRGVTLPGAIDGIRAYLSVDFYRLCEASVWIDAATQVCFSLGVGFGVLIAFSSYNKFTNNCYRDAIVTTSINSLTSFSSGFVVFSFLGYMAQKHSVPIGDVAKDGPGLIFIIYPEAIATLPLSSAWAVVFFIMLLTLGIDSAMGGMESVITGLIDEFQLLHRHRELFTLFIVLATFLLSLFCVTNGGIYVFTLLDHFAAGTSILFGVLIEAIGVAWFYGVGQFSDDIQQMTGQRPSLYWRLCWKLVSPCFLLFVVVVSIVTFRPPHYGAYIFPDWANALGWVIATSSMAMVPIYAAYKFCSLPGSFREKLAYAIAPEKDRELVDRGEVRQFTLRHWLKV

CCC1CC2CC3c4[nH]c5ccc(O)cc5c4CCN(C2)C13 (stereo not shown) [Noribogaine, reference compound]
maximal dopamine uptake inhibition: 76%
